The record followed here is patent US8242058B2, “Reagents and methods for appending functional groups to proteins” (Wisconsin Alumni Research Foundation, priority 2006, dated 2012).

In data set [1] the target is T1, ribonuclease inhibitor protein (RI) (Homo sapiens, UniProt P13489).
T1 sequence (P13489 2-461 limits assumed): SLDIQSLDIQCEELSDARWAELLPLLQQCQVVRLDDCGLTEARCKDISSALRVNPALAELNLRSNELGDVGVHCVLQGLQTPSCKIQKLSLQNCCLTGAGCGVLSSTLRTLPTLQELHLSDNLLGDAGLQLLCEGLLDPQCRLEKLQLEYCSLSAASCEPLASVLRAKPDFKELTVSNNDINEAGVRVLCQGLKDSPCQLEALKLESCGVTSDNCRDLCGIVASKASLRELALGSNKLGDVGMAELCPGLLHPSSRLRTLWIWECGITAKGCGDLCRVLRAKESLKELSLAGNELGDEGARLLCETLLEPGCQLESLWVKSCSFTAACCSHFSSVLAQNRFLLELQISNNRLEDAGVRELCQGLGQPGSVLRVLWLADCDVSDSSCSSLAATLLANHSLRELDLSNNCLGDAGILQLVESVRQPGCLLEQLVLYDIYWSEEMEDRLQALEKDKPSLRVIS
Briefly: RI binding to immobilized RNase A (immunoassay, ellipsometry). Particulars: RI 10 μM, 10 min at 4° C. As to the method:
RI binding to immobilized RNase A. Azido-RNase A (1 μL, 10 μM in 5% DMF/water) was spotted on phosphinothioester-displaying SAMs on a gold chip for 15 minutes at r.t. in an AtmosBag™ filled with Ar(g). The chip was taken out of the bag and rinsed with sodium phosphate buffer (25 mM) at pH 7.5 (2×20 mL) and incubated in the same buffer for 30 min to remove non-specifically bound RNase A. RI (10 μM in sodium phosphate buffer (25 mM) at pH 7.5 containing 10 mM DTT) was overlaid on the chip for 10 min at 4° C. The chip was then rinsed with sodium phosphate buffer (25 mM) at pH 7.5 containing 10 mM DTT (2×20 mL) and incubated in the same buffer for 15 min.
Detection of RI bound to immobilized RNase A. (i) Immunoassay: After RI binding, the chip was overlaid with bovine serum albumin (2.0 mg/mL in sodium phosphate buffer (25 mM) at pH 7.5) for 15 min. The chip was rinsed with sodium phosphate buffer (25 mM) at pH 7.5 (2×20 mL) and subsequently incubated with chicken primary antibody to RI (12.5 μg/mL in sodium phosphate buffer (25 mM) at pH 7.5) for 15 min. […] The chip was scanned with a Genomic Solutions® GeneTac UC4×4 Fluorescence Scanner using a gain of 50. […]

The nature of data set [2]: Immobilization on phosphinothioester-displaying chips by Staudinger ligation, immunofluorescence detection. Particulars: 10 μM in 5% DMF/water, r.t. On the procedure:
Preparation of Gold Chips (Chang). Preparation of Phosphinothioester-displaying SAMs of Alkane Thiols on Gold Chips. Alkane thiol solutions were prepared by dissolving HS—(CH2)11—(O—CH2—CH2)6—O—CH2—COOH and HS—(CH2)11—(O—CH2—CH2)3—OH in ethanol to a final concentration of 0.25 mM each. Gold chips were cleaned under a stream of Ar(g) and immersed in the alkane thiol solution for at least 18 h at r.t. After rinsing thoroughly with ethanol and drying under a stream of Ar(g), the chips were overlaid with an aqueous solution containing N-hydroxysuccinimide (50 mM) and 1-ethyl-3-(3-dimethylaminopropyl)-carbodiimide (200 mM) for 7 min to generate succinimidyl ester-displaying chips. Phosphinomethanethiol (PPh2CH2SH) was synthesized as described earlier and was dissolved in anhydrous DMF to a concentration of 100 mM. N,N-diisopropylethylamine (DIPEA) was added to a concentration of 120 mM. […]
Detection of Immobilized RNase A. A chip displaying immobilized RNase A was overlaid with anti-RNase A rabbit primary antibody (100 μg/mL in sodium phosphate buffer (25 mM) at pH 7.5) for 30 min at r.t. […] Finally, the chip was rinsed with sodium phosphate buffer (25 mM) at pH 7.5 (2×20 mL) and incubated in the same buffer for 15 min and scanned with a Genomic Solutions® GeneTac UC4×4 Fluorescence Scanner using a gain of 50.

The test system of data set [3] is 6-carboxyfluorescein-dArU(dA)2-6-carboxytetramethylrhodamine. Briefly: RNase A activity assay on immobilized RNase A. Type of data set: biochemical. Particulars: chip overlaid with 10 μM protein, pH 6.0. As to the method:
RNase A activity assay on immobilized RNase A. A phosphinothioester chip was overlaid with azido-RNase A (10 μM in 5% DMF/H2O) for 15 min in Ar(g) atmosphere in an AtmosBag™ to immobilize RNase A via Staudinger ligation. The chip was rinsed with sodium phosphate buffer (25 mM) at pH 7.5 (2×20 mL) and then introduced into a vial containing 2-(N-Morpholino)ethanesulfonic acid buffer (0.1 M) at pH 6.0 (22 mL, containing 0.1 M NaCl). A fluorogenic substrate of RNase A, 6-carboxyfluorescein-dArU(dA)2-6-carboxytetramethylrhodamine (10 μl of a 40 μM solution), was introduced into the vial. The vial was placed on a shaker and 2 mL aliquots were withdrawn at various time intervals and the fluorescence measured (λex=493 nm, λem=515 nm). The fluorescence intensity was plotted against time. A phosphinothioester chip was overlaid with wt-RNase A (10 μM in 5% DMF/H2O) and rinsed with sodium phosphate buffer (25 mM) at pH 7.5 (2×20 mL) and a similar assay was performed. As a negative control, a similar assay was performed on a phosphinothioester chip which was not overlaid with RNase A. The percentage of the fluorescent substrate cleaved at various time intervals were subtracted from the corresponding values for the negative control to generate the graph in FIG. 8.

Turning to “Met(−1)RNase A-Gly-NHNHCH2C(O)NHCH2CH2N3 [azido-RNase A]”, the “RI binding to chip incubated with the protein” value in data set [1] is listed as “bound RI”. Moreover, in data set [2], the “time at which fluorescence signal of immobilized protein was detected” value was at most 1 min. The “enzymatic activity of chip incubated with the protein (increase of fluorescence intensity)” value in data set [3] is on record as “much faster rate”.
